Test results published in patent EP1561465A2, “Methods of use of fluoroquinolone compounds against bacteria” (LG Life Sciences, Ltd., priority 1999, dated 2001).
Converted amounts (≈) assume the structure as drawn.

Tests used:
Format in all cases: cell-based
Streptococcus pyogenes = assay: MIC by NCCLS reference broth microdilution, 450 respiratory tract pathogens; conditions: Streptococcus pyogenes
Moraxella catarrhalis = assay: as above
Staphylococcus aureus = assay: microbe, parasite or virus in culture
Enterobacter aerogenes = assay: MIC by NCCLS broth microdilution, 1100 Japanese clinical isolates 1997-1998; conditions: Enterobacter aerogenes (n=35)
Enterobacter cloacae = assay: as above; conditions: Enterobacter cloacae (n=40)
Salmonella spp. = assay: as above; conditions: Salmonella spp. (n=29)
Morganella morganii = assay: as above
[1] = MIC by agar dilution, Brucella HK agar, 491 anaerobic clinical isolates; conditions: clinical isolates of Bacteroides spp., Prevotella bivia and other Prevotella spp.
[2] = Streptococcus pyogenes (n = 100)
[3] = erythromycin resistant C phenotype [MLSB] (n = 20)
[4] = erythromycin resistant I phenotype [MLSB] (n = 20)
[5] = erythromycin resistant M phenotype (n = 20)

## C[C@@H]1CN(c2c(F)c(N)c3c(=O)c(C(=O)O)cn(C4CC4)c3c2F)C[C@H](C)N1 [Sparfloxacin, sparfloxacin]
Streptococcus pyogenes; [2]
  MIC: 0.06 to 1 µg/mL (≈ 0.153 to 2.55 µM)
  MIC50: 0.5 µg/mL (≈ 1.27 µM)
  MIC90: 1 µg/mL (≈ 2.55 µM)
Streptococcus pyogenes; [3]
  MIC: 0.25 to 1 µg/mL (≈ 0.637 to 2.55 µM)
  MIC50: 0.25 µg/mL (≈ 0.637 µM)
  MIC90: 0.25 µg/mL (≈ 0.637 µM)
Streptococcus pyogenes; [4]
  MIC: 0.06 to 1 µg/mL (≈ 0.153 to 2.55 µM)
  MIC50: 0.5 µg/mL (≈ 1.27 µM)
  MIC90: 0.5 µg/mL (≈ 1.27 µM)
Streptococcus pyogenes; [5]
  MIC: 0.25 to 1 µg/mL (≈ 0.637 to 2.55 µM)
  MIC50: 0.5 µg/mL (≈ 1.27 µM)
  MIC90: 0.5 µg/mL (≈ 1.27 µM)
Streptococcus pyogenes; fully susceptible (n = 20)
  MIC: 0.25 to 1 µg/mL (≈ 0.637 to 2.55 µM)
  MIC50: 0.5 µg/mL (≈ 1.27 µM)
  MIC90: 1 µg/mL (≈ 2.55 µM)
Streptococcus pyogenes; multi-drug resistant (n = 20)
  MIC: 0.25 to 1 µg/mL (≈ 0.637 to 2.55 µM)
  MIC50: 1 µg/mL (≈ 2.55 µM)
  MIC90: 1 µg/mL (≈ 2.55 µM)
Moraxella catarrhalis; Moraxella catarrhalis (n = 50)
  MIC: 0.00375 to 0.06 µg/mL (≈ 0.00956 to 0.153 µM)
  MIC50: 0.015 µg/mL (≈ 0.0382 µM)
  MIC90: 0.03 µg/mL (≈ 0.0765 µM)
Moraxella catarrhalis; β-lactamase negative (n = 13)
  MIC: 0.00375 to 0.06 µg/mL (≈ 0.00956 to 0.153 µM)
  MIC50: 0.0075 µg/mL (≈ 0.0191 µM)
  MIC90: 0.06 µg/mL (≈ 0.153 µM)
Moraxella catarrhalis; β-lactamase positive (n = 37)
  MIC: 0.00375 to 0.06 µg/mL (≈ 0.00956 to 0.153 µM)
  MIC50: 0.015 µg/mL (≈ 0.0382 µM)
  MIC90: 0.03 µg/mL (≈ 0.0765 µM)
Staphylococcus aureus; Methicillin-resistant (38)
  MIC Range: 0.063 to 64 µg/mL
Staphylococcus aureus; Methicillin-susceptible (9)
  MIC Range: 0.063 to 0.5 µg/mL
Staphylococcus aureus; Staphylococcus aureus, Methicillin-resistant (38)
  MIC50: 2 µg/mL (≈ 5.1 µM)
Staphylococcus aureus; Staphylococcus aureus, Methicillin-resistant (38), read-out: MIC90
  MIC90: 64 µg/mL (≈ 163 µM)
Staphylococcus aureus; Staphylococcus aureus, Methicillin-susceptible (9)
  MIC50: 0.125 µg/mL (≈ 0.319 µM)
Staphylococcus aureus; Staphylococcus aureus, S. aureus KU2240, mutant type Wild (wild strain)
  MIC: 0.25 µg/mL (≈ 0.637 µM)
Staphylococcus aureus; Staphylococcus aureus, S. aureus KU2241, mutant type NorA (efflux-mediated quinolone resistant)
  MIC: 0.25 µg/mL (≈ 0.637 µM)
Staphylococcus aureus; Staphylococcus aureus, S. aureus KU2242, mutant type T (DNA topoisomerase IV)
  MIC: 0.25 µg/mL (≈ 0.637 µM)
Staphylococcus aureus; Staphylococcus aureus, S. aureus KU2243, mutant type G+T (DNA gyrase and topoisomerase IV)
  MIC: 64 µg/mL (≈ 163 µM)
Staphylococcus aureus; Staphylococcus aureus, S. aureus KU2244, mutant type G (DNA gyrase)
  MIC: 0.25 µg/mL (≈ 0.637 µM)
Staphylococcus aureus; Staphylococcus aureus, S. aureus KU2245, mutant type G+T (DNA gyrase and topoisomerase IV)
  MIC: 64 µg/mL (≈ 163 µM)
Staphylococcus aureus; Staphylococcus aureus, S. aureus KU2246, mutant type T (DNA topoisomerase IV)
  MIC: 0.25 µg/mL (≈ 0.637 µM)
Enterobacter aerogenes
  MIC Range: 0.016 to 0.25 µg/mL
Enterobacter aerogenes; Klebsiella aerogenes
  MIC50: 0.032 µg/mL (≈ 0.0815 µM)
  MIC90: 0.063 µg/mL (≈ 0.161 µM)
Enterobacter cloacae
  MIC50: 0.032 µg/mL (≈ 0.0815 µM)
  MIC90: 1 µg/mL (≈ 2.55 µM)
  MIC Range: ≤8 to 2000 ng/mL
Salmonella spp.
  MIC50: 0.032 µg/mL (≈ 0.0815 µM)
  MIC90: 0.063 µg/mL (≈ 0.161 µM)
  MIC Range: 0.016 to 0.063 µg/mL
Morganella morganii; Morganella morganii
  MIC50: 0.125 µg/mL (≈ 0.319 µM)
Morganella morganii; Morganella morganii (n=40)
  MIC Range: 0.063 to 16 µg/mL
Morganella morganii; Morganella morganii (n=40), read-out: MIC90
  MIC90: 0.5 µg/mL (≈ 1.27 µM)
[1]
  MIC90: 4 to 32 µg/mL (≈ 10.2 to 81.5 µM)
